Results reported in patent US5326879A, “Indole derivatives” (priority 1991, dated 1994).
Like-named read-outs stand apart in the source and are kept apart here.

Assays:
H^+ /K^+ ATPase = target: T1, H^+ /K^+ ATPase (Sus scrofa, UniProt P19156); assay: H^+ /K^+ ATPase Inhibitory Activity Assay; assay type: biochemical, pig; conditions: for inhibition at 20 µg/mL: 20 μg/ml; for inhibition at 10 µg/mL / inhibition at 5 µg/mL: read-out: H^+ /K^+ ATPase % Inhibition
T1 construct: prepared from the stomach of pig; from tissue; host or cells: stomach of pig
Description: The inhibitory activity was determined in the following manner using H^+ /K^+ ATPase prepared from the stomach of pig.
H^+ /K^+ ATPase dilute solution (100 μl, 50 μg as protein) was added to PIPES-tris (pH 6.2) buffer solution (440 μl) containing 4 mM magnesium chloride and 20 mM potassium chloride. Further, 0.1% ethanol solution of nigericin (5 μl) was added. To the solution was added dimethyl sulfoxide (5 μl) and the mixture was incubated at 37° C. for 30 minutes. Then 10 mM PIPES-tris buffer solution (450 μl) containing 4 mM ATP disodium was added to initiate the reaction. 30 minutes later, 50% trichloroacetic acid (1 ml) was added to cease the reaction. […] On the other hand, a similar determination was carried out in the absence of potassium chloride, at which the reading of the absorbance is taken as C2. […] In that case, the readings of the absorbance in the presence and absence of potassium chloride are taken as T1 and T2, respectively.
% Inhibition (I) of the inhibiting substance (test compound) is calculated by the following equation.

[1] = background statement; cited from earlier work

T1 sequence (P19156 2-1034 limits assumed): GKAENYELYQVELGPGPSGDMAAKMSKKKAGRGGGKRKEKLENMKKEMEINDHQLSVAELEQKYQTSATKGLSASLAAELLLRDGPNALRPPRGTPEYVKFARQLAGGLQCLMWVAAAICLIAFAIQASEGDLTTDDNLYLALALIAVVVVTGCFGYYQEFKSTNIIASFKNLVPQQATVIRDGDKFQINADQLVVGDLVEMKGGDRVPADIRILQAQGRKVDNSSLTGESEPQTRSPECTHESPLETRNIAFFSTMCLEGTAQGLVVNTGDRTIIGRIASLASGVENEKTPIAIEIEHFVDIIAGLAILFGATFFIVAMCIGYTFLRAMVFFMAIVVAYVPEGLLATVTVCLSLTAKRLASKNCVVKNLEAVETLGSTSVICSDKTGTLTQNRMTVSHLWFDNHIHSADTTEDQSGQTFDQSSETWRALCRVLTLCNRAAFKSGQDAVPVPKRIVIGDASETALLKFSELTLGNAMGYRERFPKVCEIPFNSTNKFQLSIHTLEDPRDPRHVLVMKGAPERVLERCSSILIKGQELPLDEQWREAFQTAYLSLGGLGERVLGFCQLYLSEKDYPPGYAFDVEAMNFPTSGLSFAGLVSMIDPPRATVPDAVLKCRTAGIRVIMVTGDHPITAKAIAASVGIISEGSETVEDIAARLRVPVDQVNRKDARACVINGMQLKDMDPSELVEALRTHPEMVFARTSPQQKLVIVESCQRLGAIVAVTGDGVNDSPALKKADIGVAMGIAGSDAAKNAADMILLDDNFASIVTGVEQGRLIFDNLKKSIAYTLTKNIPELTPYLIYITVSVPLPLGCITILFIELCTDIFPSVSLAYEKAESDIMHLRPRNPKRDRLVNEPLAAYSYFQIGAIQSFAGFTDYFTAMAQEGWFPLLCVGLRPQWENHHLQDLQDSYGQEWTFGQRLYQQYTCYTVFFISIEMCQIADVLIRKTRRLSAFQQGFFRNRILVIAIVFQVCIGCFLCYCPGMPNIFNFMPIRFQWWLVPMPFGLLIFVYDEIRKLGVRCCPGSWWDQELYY
T1 sequence (P18434 whole entry partner): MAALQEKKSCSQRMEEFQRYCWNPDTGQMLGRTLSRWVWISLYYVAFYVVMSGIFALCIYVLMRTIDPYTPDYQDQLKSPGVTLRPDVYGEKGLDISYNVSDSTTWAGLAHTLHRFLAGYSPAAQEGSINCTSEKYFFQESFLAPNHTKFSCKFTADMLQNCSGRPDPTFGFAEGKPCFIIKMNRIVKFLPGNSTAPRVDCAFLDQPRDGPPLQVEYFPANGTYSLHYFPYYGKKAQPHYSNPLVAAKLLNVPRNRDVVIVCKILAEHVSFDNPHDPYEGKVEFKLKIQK

SMILES	inhibition at 20 µg/mL (H^+ /K^+ ATPase) [%]	inhibition at 10 µg/mL (H^+ /K^+ ATPase; 10 μg/ml) [%]	further results
c1ccc2c(CCN3CCCCC3)c(CCCCCCc3[nH]c4ccccc4c3CCN3CCCCC3)[nH]c2c1 [Example 1, 3,3'-Di(2-piperidinoethyl)-2,2'-hexamethylenediindole]	5		
c1ccc2[nH]c(CCCCCCc3[nH]c4ccccc4c3CCN3CCCCC3)cc2c1 [Example 2, 3-(2-Piperidinoethyl)-2,2'-hexamethylenediindole]		84	
c1ccc(CCNCCc2c(CCCCc3cc4ccccc4[nH]3)[nH]c3ccccc23)cc1 [Example 3, 3-(2-Phenethylaminoethyl)-2,2'-tetramethylenediindole]		97	
c1ccc2[nH]c(CCCCCCCCc3[nH]c4ccccc4c3CCN3CCCCC3)cc2c1 [Example 4, 3-(2-Piperidinoethyl)-2,2'-octamethylenediindole]		91	
c1ccc2[nH]c(CCCCc3[nH]c4ccccc4c3CCN3CCOCC3)cc2c1 [Example 5, 3-(2-Morpholinoethyl)-2,2'-tetramethylenediindole]	68		
c1ccc(CNCCc2c(CCCCc3[nH]c4ccccc4c3CCNCc3ccccc3)[nH]c3ccccc23)cc1 [Example 7, 3,3'-Di(2-benzylaminoethyl)-2,2'-tetramethylenediindole]	76		
c1ccc(CNCCc2c(CCCCc3cc4ccccc4[nH]3)[nH]c3ccccc23)cc1 [Example 8, 3-(2-Benzylaminoethyl)-2,2'-tetramethylenediindole]	100		
c1ccc(CCNCCc2c(CCCCc3[nH]c4ccccc4c3CCNCCc3ccccc3)[nH]c3ccccc23)cc1 [Example 13, 3,3'-Di(2-phenethylaminoethyl)-2,2'-tetramethylenediindole]			inhibition at 5 µg/mL (H^+ /K^+ ATPase; 5 μg/ml): 74%
c1ccc2[nH]c(CCCCc3[nH]c4ccccc4c3CCNCCc3c[nH]c4ccccc34)cc2c1 [Example 16, 3-(2-(2-(3-Indolyl)ethylamino)ethyl)-2,2'-tetramethylenediindole]			inhibition at 5 µg/mL (H^+ /K^+ ATPase; 5 μg/ml): 71%
CN(CCc1c(CCCCc2[nH]c3ccccc3c2CCN(C)Cc2ccccc2)[nH]c2ccccc12)Cc1ccccc1 [Example 17, 3,3'-Di(2-(N-methylbenzylamino)ethyl)-2,2'-tetramethylenediindole]			inhibition at 5 µg/mL (H^+ /K^+ ATPase): 38%
CN(CCc1c(CCCCc2cc3ccccc3[nH]2)[nH]c2ccccc12)Cc1ccccc1 [Example 18, 3-(2-(N-Methylbenzylamino)ethyl)-2,2'-tetramethylenediindole]			inhibition at 10 µg/mL (H^+ /K^+ ATPase): 100%
c1ccc(CCCNCCc2c(CCCCc3[nH]c4ccccc4c3CCNCCCc3ccccc3)[nH]c3ccccc23)cc1 [Example 19, 3,3'-Di(2-(3-phenylpropylamino)ethyl)-2,2'-tetramethylenediindole]		98	
COc1ccc2[nH]c([S+]([O-])Cc3ncc(C)c(OC)c3C)nc2c1 (stereo not shown) [Omeprazole, omeprazole]			occurrence of side effect (omeprazole) [1]: occurrence of carcinoid
